Measurements taken from PMC12566723, “Boronic Derivatives of Thiosemicarbazones as Tyrosinase Inhibitors” (Pharmaceutics, 2025).
Counter-ions that a name gives are not always drawn.

How the values were obtained:
[1] = tested on: MCF-10A; experiment: Antiproliferative activity by sulforhodamine B assay, MCF-10A; format: cell-based; settings: for IC50: 72 h, SRB; for inhibition at 100 µM: read-out: proliferation inhibition at 100µM (reported if IC50 > 100 µM), 100 µM, 72 h, SRB
Procedure: (§1) Cell lines. The Hs-294T (HTB-140), MCF-10A, and SK-MEL-3 (HTB-69) cell lines were purchased from the American Type Culture Collection (ATCC; Rockville, MD, USA). The KU-19-19 was purchased from Leibniz Institute DSMZ-German Collection of Microorganisms and Cell Cultures GmbH (Braunschweig, Germany). Hs-294T, SK-MEL-3, and KU-19-19 (ACC 395) cell lines were cultured in Dulbecco’s Modified Eagle Medium (DMEM; Biowest, Nuaille, France) supplemented with 10% (v/v) fetal bovine serum (FBS; GE Healthcare HyClone, Logan, UT, USA), 2 mM L-glutamine (Sigma-Aldrich, Poznań, Poland). The MCF-10A cell line was cultured in Ham’s F12 medium with glutamine (Corning Costar, Warsaw, Poland) supplemented with 5% (v/v) FBS, 5% (v/v) horse serum, 10 µg/mL insulin, 0.05 µg/mL cholera toxin, 0.5 µg/mL hydrocortisone, and 20 ng/mL hEGF (all from Sigma-Aldrich). All culture media contained 100 µg/mL streptomycin (Sigma-Aldrich) and 100 U/mL penicillin (PolfaTarchomin SA, Warsaw, Poland). The cell lines were tested for mycoplasma contamination using Venor GeM Classic (Minerva Biolabs, Berlin, Germany) with negative results in all cases. Cell lines were cultured in a humidified atmosphere at 37 °C with 5% (v/v) CO2 and passaged twice a week using ethylenediaminetetraacetic acid (EDTA)-Trypsin solution (pH 8; HIIET, Wroclaw, Poland) as a detachment agent.
(§2) Antiproliferative activity assessment by sulforhodamine B assay. The cells were seeded on 384-well plates (Greiner Bio One, Kremsmünster, Austria) at a density of 1 × 10^3 cells/well and, after overnight attachment, were exposed to compounds at various concentrations (at least eight concentrations). After 72 h, the sulforhodamine B (SRB) assay based on Skehan et al. was performed with minor modifications. Briefly, cell were fixed with 20% (w/v) trichloroacetic acid (Avantor Performance Materials, Gliwice, Poland) for 1 h, washed several times with tap water, and stained with 20 µL of 0.1% (w/v) solution of sulforhodamine B (Sigma-Aldrich, Poznan, Poland) in 1% (v/v) acetic acid (Avantor Performance Materials, Gliwice, Poland). After 30 min of incubation at room temperature, the unbound dye was washed out with 1% (v/v) acetic acid, whereas the bound dye was solubilized with 70 µL of a 10 mM unbuffered tris(hydroxymethyl)aminomethane (TRIS; Avantor Performance Materials, Gliwice, Poland) solution. The entire procedure was performed using Biotek EL-406 washing station (BioTek Instruments, Winooski, VT, USA). Absorbance was read using a Biotek Hybrid H4 reader (BioTek Instruments, Winooski, VT, USA) at 540 nm wavelength. Proliferation inhibition (%Inh) was calculated using the following formula: %Inh = [((A_p − A_m)/(A_k − A_m)) × 100] − 100, where Am—absorbance of cell-free medium (blank), Ak—absorbance for vehicle-treated cells (control), Ap—absorbance for compound-treated cells. […] 10.5.0 (GraphPad Software Inc., San Diego, CA, USA) using the [inhibitor] vs. response—variable slope (four parameters) Hill’s equation, based on at least three biological, independent repeats.

[2] = tested on: SK-MEL-3; experiment: Antiproliferative activity by sulforhodamine B assay, SK-MEL-3; format: cell-based; settings: SRB; for IC50: SK-MEL-3, 72 h; for inhibition at 100 µM: SK-MEL3, read-out: proliferation inhibition at 100µM (reported if IC50 > 100 µM), SK-MEL-3, 100 µM, 72 h
Procedure: as §1, §2

[3] = tested on: Hs-294T; experiment: Antiproliferative activity by sulforhodamine B assay, Hs-294T; format: cell-based; settings: for IC50: 72 h, SRB; for inhibition at 100 µM: read-out: proliferation inhibition at 100µM (reported if IC50 > 100 µM), 100 µM, 72 h, SRB
Procedure: as §1, §2

[4] = tested on: SK-MEL-3, Hs294T, KU-19-19, MCF-10A cell lines; experiment: Antiproliferative activity by sulforhodamine B assay, statements across the cell line panel; format: cell-based; settings: for antiproliferative effects in words: up to a concentration of 100 µM; for IC50 in SK-MEL-3 relative to the Hs294T cell line: SK-MEL-3 vs Hs294T, fold higher
Procedure: as §1, §2
In view of the results obtained from studies on the inhibitory activity of boronate derivatives of thiosemicarbazones against tyrosinase, we decided to test their ability to inhibit the growth and proliferation of tumor lines that overexpress tyrosinase. For this purpose, we tested antiproliferative activity on selected cell lines. Initial antiproliferative screening was conducted using a tissue-agnostic approach on a select panel of cell lines. […]

[5] = tested on: KU-19-19; experiment: Antiproliferative activity by sulforhodamine B assay, KU-19-19; format: cell-based; settings: SRB; for IC50: KU-19-19, 72 h; for inhibition at 100 µM: read-out: proliferation inhibition at 100µM (reported if IC50 > 100 µM), KU-19-19, 100 µM, 72 h
Procedure: as §1, §2

[6] = target: mushroom tyrosinase (Agaricus bisporus, UniProt C7FF04); experiment: Tyrosinase enzymatic assay (diphenolase activity, L-DOPA substrate, dopachrome at 475 nm); format: biochemical; settings: para-substituted analogue vs carboxylic acid of ref 30
Sequence of mushroom tyrosinase (C7FF04 2-392): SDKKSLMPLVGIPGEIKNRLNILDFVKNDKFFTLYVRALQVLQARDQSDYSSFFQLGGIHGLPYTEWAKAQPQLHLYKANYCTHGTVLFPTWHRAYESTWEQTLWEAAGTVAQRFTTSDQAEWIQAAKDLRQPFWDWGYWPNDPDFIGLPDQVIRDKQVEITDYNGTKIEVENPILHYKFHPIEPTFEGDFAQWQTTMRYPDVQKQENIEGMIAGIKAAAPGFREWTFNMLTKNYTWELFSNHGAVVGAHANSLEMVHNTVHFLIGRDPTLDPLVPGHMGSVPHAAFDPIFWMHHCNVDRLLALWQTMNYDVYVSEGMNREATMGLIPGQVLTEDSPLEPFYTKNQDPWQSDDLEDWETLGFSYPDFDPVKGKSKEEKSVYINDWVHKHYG
Sequence of mushroom tyrosinase (G1K3P4 1-150 partner): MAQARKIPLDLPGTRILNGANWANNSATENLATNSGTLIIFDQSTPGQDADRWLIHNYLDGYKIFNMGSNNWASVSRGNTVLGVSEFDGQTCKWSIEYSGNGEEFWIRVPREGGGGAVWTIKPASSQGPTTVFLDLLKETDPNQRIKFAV

CC1=NN(C(N)=S)B(O)c2ccccc21 [Compound 4]
IC50 ([1]; Homo sapiens): 55 µM
IC50 ([2]; Homo sapiens, SK-MEL3): 68.5 µM
IC50 ([3]; Homo sapiens): 79.4 µM
IC50 ([4]; all four cell lines, 72 h, SRB, read-out: IC50 values, range over the tested cell lines): 55 to 79.4 µM
IC50 ([5]; Homo sapiens): 69 µM

C/C(=N\NC(N)=S)c1ccc(B(O)O)cc1 [Compound 6]
inhibition at 100 µM ([1]; Homo sapiens): 32.8%
inhibition at 100 µM ([2]; Homo sapiens): 37.3%
inhibition at 100 µM ([3]; Homo sapiens): 13.9%
IC50 against tyrosinase compared with the corresponding carboxylic acid [6]: four times lower
antiproliferative effects in words [4]: minimal antiproliferative effects
inhibition at 100 µM ([5]; Homo sapiens): 9.5%

NC(=S)NN=Cc1cccc(B(O)O)c1 [Compound 2]
inhibition at 100 µM ([1]; Homo sapiens): 30.7%
inhibition at 100 µM ([2]; Homo sapiens): 50.7%
inhibition at 100 µM ([3]; Homo sapiens): 37.6%
inhibition at 100 µM ([5]; Homo sapiens): 11.3%

C/C(=N\NC(N)=S)c1cccc(B(O)O)c1 [Compound 5]
inhibition at 100 µM ([1]; Homo sapiens): 37.1%
IC50 ([2]; Homo sapiens, SK-MEL3): 56.1 µM
inhibition at 100 µM ([3]; Homo sapiens): 35.9%
inhibition at 100 µM ([5]; Homo sapiens): 26.8%

NC(=S)N/N=C/c1ccc(B(O)O)cc1 [Compound 3]
inhibition at 100 µM ([1]; Homo sapiens): 31.7%
inhibition at 100 µM ([2]; Homo sapiens): 31.8%
inhibition at 100 µM ([3]; Homo sapiens): 13.9%
antiproliferative effects in words [4]: minimal antiproliferative effects
inhibition at 100 µM ([5]; Homo sapiens): 5.4%

NC(=S)N1N=Cc2ccccc2B1O [Compound 1]
inhibition at 100 µM ([1]; Homo sapiens): 42.7%
inhibition at 100 µM ([2]; Homo sapiens): 43.4%
inhibition at 100 µM ([3]; Homo sapiens): 55.4%
inhibition at 100 µM ([5]; Homo sapiens): 21.4%

[NH2][Pt]([NH2])([Cl])[Cl] [CDDP, Cisplatin, reference compound]
IC50 [1]: 3.03 µM
IC50 [2]: 15 µM
IC50 [3]: 2.17 µM
IC50 in SK-MEL-3 relative to the Hs294T cell line [4]: 6.9 fold
IC50 [5]: 4.46 µM

COc1cccc2c1C(=O)c1c(O)c3c(c(O)c1C2=O)C[C@@](O)(C(=O)CO)C[C@@H]3O[C@H]1C[C@H](N)[C@H](O)[C@H](C)O1 [Doxo, Doxorubicin hydrochloride, reference compound]
IC50 ([1]; Homo sapiens): 0.00051 µM
IC50 ([2]; Homo sapiens, SK-MEL3): 0.016 µM
IC50 ([3]; Homo sapiens): 0.0011 µM
IC50 in SK-MEL-3 relative to the Hs294T cell line [4]: 14.5 fold
IC50 ([5]; Homo sapiens): 0.0016 µM
